Data taken from US20250009707A1, “METHODS OF INDUCING KETOSIS IN NON-HUMAN MAMMALS” (BOPZ Nutrition Ltd., priority 2023, published 2025).

How the values were obtained:
[1] = Serum/plasma BHB in fed canines, gastric gavage (Examples 2-4); assay type: in vivo, canines (beagles); conditions: 500 mg/kg
Experimental: Ketosis may be assessed quantitatively by measuring plasma beta-hydroxybutyrate (BHB) concentrations. Methods of measuring plasma BHB concentrations are known in the art. Non-limiting exemplary methods for measuring plasma BHB concentrations are provided in U.S. Pat. No. 10,562,839, which is hereby incorporated by reference in its entirety. Plasma BHB levels may be determined by a colorimetric enzymatic assay (Stanbio Laboratory 2440-058).
(§1) A group of 6 beagles was evaluated per tested compound of the disclosure. In a first period, the canines were administered 250 mg/kg of C8-BHB. In a second period, the canines were administered 500 mg/kg of C8-BHB. In a third period, the canines were administered MCT at a dose of 5.5%. In a fourth period, the canines were administered 125 mg/kg of C8-BHB. A washout period of 7 days was provided between each of the first, second, third, and fourth periods.
(§2) Following the tolerability results of Example 1, the canines were fed, and the compound was administered by gastric gavage in subsequent examples.
In each of the first, second, third, and fourth period, serum was sampled prior to administration of the compound, then at minute 15, 30, 45, 60, 75, 90, 120, 180, 240, and 300. Serum was sampled for BHB analysis.
(§3) If emesis occurred 60 minutes from administration of the compound, serum BHB content was not analyzed.
C8-BHB and C8×2-BD were selected as exemplary compounds of the disclosure for administration to canines according to the method of Example 2. Each exemplary compound was administered to 6 canines.
To further evaluate the potential of the compounds of the disclosure for inducing ketosis in canines, the compounds and MCTs were administered to the same canines, as described in Example 2.

[2] = Tolerability in fed canines, gastric gavage (Example 2); assay type: in vivo
Experimental: as §1, §2
(§4) In each of the first, second, third, and fourth period, pathology samples were taken prior to administration of the compound, then at minute 20, 60, 90, 120, 180, 240, and 300.
as §3

[3] = Tolerability (emesis) in fasted canines, sublingual gavage (Example 1); assay type: in vivo; conditions: 250 mg/kg
Experimental: Example 1 provides a method by which compounds of the disclosure were evaluated in a first study, wherein dogs were fasted and the compounds were administered by sublingual gavage.
In a first period, a group of 12 canines (beagles) were administered 5.5% MCT in a first period, and 250 mg/kg C8-BHB in a second period. A 7 day washout period was provided between the first and second periods.
The canines were fasted, and the C8-BHB or MCTs was administered by sublingual gavage.
as §4
Where emesis occurred before 60 minutes from dosing, serum BHB content was not analyzed.
Where emesis occurred at or after 60 minutes from dosing and before 300 minutes from dosing, Cmax was calculated but AUC was not calculated.

CCCCCCCC(=O)O[C@H](C)CC(=O)OCC [C8-BHB, octanoyl-ethyl-3-hydroxybutyrate]
BHB Cmax [1]: 1.00 mM
BHB Tmax [1]: 51 min
Tolerability compared to MCTs (FIGS. 2A-D) ([2]; fed canines, gastric gavage, doses of 125, 250 and 500 mg/kg): improved tolerability
Canines tolerating the substance ([2]; fed state, overall): 83%
Tolerability compared to MCTs (FIG. 1B) [3]: better tolerated

CCCCCCCC(=O)OCC[C@@H](C)OC(=O)CCCCCCC [C8×2-BD, bis-octanoyl-1,3-butanediol]
BHB Cmax [1]: 0.70 mM
BHB Tmax [1]: 57 min
